In patent US20250121099A1, “CLOSO-DODECAIODODECABORATE COMPLEXES AND METHODS OF USE FOR SAME” (The Regents of the University of California, priority 2022, published 2025):
“Also recorded” adds a separate entry of the source. Read-outs that look alike come from different tables or passages of the source.

How the values were obtained:
[1] = cited from earlier work
[2] = Stability of Na2B12I12: refluxing PBS (11B NMR); assay type: physicochemical; details: refluxing in PBS pH 7.4 (100° C.) for 1 hour
Description: (§1) General methods. Na2B12I12 was obtained from Katchem, γ-cyclodextrin (γ-CD) was obtained from Combi-Blocks, 2-hydroxypropyl-γ-cyclodextrin (HP-γ-CD; 0.6 functionalized, average Mw=1580 Da) was obtained from Sigma-Aldrich, phosphate-buffered saline (PBS) was obtained from Fisher Scientific. The reagents were used as received. D2O was obtained from Cambridge Isotopes. Washed single-donor human red blood cells (RBCs) were obtained from Innovative Research. These are RBCs that have been separated from type 0 positive whole blood and resuspended in Alsever's Solution. Defibrinated bovine blood was obtained from HemoStat Laboratories. All experiments were performed under ambient conditions. NMR spectra were collected using a Bruker Avance III HD 500 spectrometer equipped with a multinuclear Smart Probe. The frequencies of the ^1H and ^11B NMR signals are reported in ppm as chemical shifts from TMS and BF3·Et2O, respectively. Electronic absorption spectra were recorded on VWR UV-6300PC double beam spectrophotometer. […] Each sample was spiked with D2O and analyzed by ^11B NMR spectroscopy. […] The absorbance of this solution was measured from 700 to 350 nm. The subsequent samples were then measured in turn. […] The absorbance corresponding to 100% lysis was confirmed by adding a 10 μL aliquot of freshly resuspended RBCs to 250 μL of hemolysis buffer (0.15 M NH4Cl and 10 mM KHCO3). […]

[3] = system: human red blood cells (RBCs); test: Hemolytic activity of Na2B12I12 (Hb release from RBCs); assay type: cell-based
Description: as §1, with “spectrophotometer. Stability of Na2B12I12: refluxing PBS. A 500 μL aliquot of a 10 mM solution of Na2B12I12 in PBS (pH 7.4) was placed in an oil bath pre-heated to 100° C. After incubating in this bath for 1 h, the sample was removed, cooled to room temperature, and spiked with 50 μL D2O prior to acquiring a ^11B NMR spectrum. Stability of Na2B12I12: human RBCs. A 275 μL aliquot of a 20 mM solution of Na2B12I12 in PBS (pH 7.4) was added to a 225 μL suspension of human RBCs. The mixture was allowed to stand at room temperature for 24 h. It was then spiked with 50 μL D2O prior to acquiring a ^11B NMR spectrum. […] Stability of Na2B12I12: bovine serum. A 1 mL aliquot of defibrinated bovine blood was centrifuged for 15 s at 15,850×g. A 225 μL aliquot of the serum supernatant was combined with a 275 μL aliquot of a 20 mM solution of Na2B12I12 in PBS (pH 7.4). The mixture was allowed to stand at room temperature for 24 h. It was then spiked with 50 μL D2O prior to acquiring a ^11B NMR spectrum. Stability of Na2B12I12: bovine blood. A 225 μL aliquot of defibrinated bovine blood was combined with a 275 μL aliquot of a 20 mM solution of Na2B12I12 in PBS (pH 7.4). The mixture was allowed to stand at room temperature for 24 h. It was then spiked with 50 μL D2O prior to acquiring a ^11B NMR spectrum. Job plot of HP-γ-CD and Na2B12I12. Solutions of Na2B12I12 (20 mM) and […] (20 mM) were prepared in PBS (pH 7.4).” for “spectrophotometer.”

[4] = system: cats; details: cited from earlier work
[5] = Stability of Na2B12I12: bovine blood (11B NMR); assay type: in vitro ADME; details: 24-hour incubation at room temperature with defibrinated bovine blood
Description: as §1

[6] = Stability of Na2B12I12: bovine serum (11B NMR); assay type: in vitro ADME; details: 24-hour incubation at room temperature with bovine serum
Description: as §1

[7] = Stability of Na2B12I12: human RBCs (11B NMR); assay type: in vitro ADME; details: 24-hour incubation at room temperature with suspension of human RBCs
Description: as §1

[8] = system: mice; details: cited from earlier work

Substance | chemical stability ([1]; heating to 85° C. in 5M NaOH) | chemical stability ([1]; heating to 150° C. in H2SO4) | chemical stability ([1]; treatment with Cl2 gas) | stability (new 11B NMR signals) [2] | hemolysis ([3]; 100 mM Na2B12I12, no cyclodextrin, human RBCs) | concentrations at which hemolysis is not induced ([3]; Na2B12I12 alone) | concentration of PBS solutions that induce hemolysis ([3]; PBS) | IC50 ([3]; human RBCs in PBS pH 7.4, 10 s exposure, three replicates, read-out: IC50 (proportion of RBCs lysed, absorption of supernatant at 413 nm, logistic regression) (converted)) [mM] | toxicity [4] | stability (new 11B NMR signals) [5] | stability (new 11B NMR signals) [6] | stability (new 11B NMR signals) [7] | toxicity [8]
closo-dodecaiodododecaborate [B12I12^2−] | unchanged | unchanged | unchanged |  |  |  |  |  |  |  |  |  | 
closo-dodecaiodododecaborate sodium [Na2B12I12] |  |  |  | lack of new ^11B NMR signals | rapid hemolysis; also recorded: complete hemolysis | below 6 mM | greater than 50 mM | 66.3 | toxic | no additional signals appear; also recorded: absence of new signals | no additional signals appear; also recorded: absence of new signals | no additional signals appear; also recorded: absence of new signals | toxic
